Reference: patent publication US20250127825A1, “PROBIOTIC COMPOSITIONS AND METHODS OF USE THEREOF FOR WEIGHT LOSS” (priority 2023, published 2025)

System: C. elegans worms
Experiment: Nile Red lipid staining of worm intestine after 48 hours on experimental diet, non-obesogenic setting
Assay type: in vivo
Conditions: for Normalized Nile Red fluorescence, Mean / Normalized Nile Red fluorescence, Median: divided by mean fluorescence of standard diet; for Mean Diff. of fluorescence, Standard E. coli Diet vs. Orlistat / Mean Diff. of fluorescence, Orlistat vs. UF1 100 mg/ml / Mean Diff. of fluorescence, Orlistat vs. UF1 OD7 / Mean Diff. of fluorescence, Standard E. coli Diet vs. UF1 100 mg/ml / Mean Diff. of fluorescence, Standard E. coli Diet vs. UF1 OD7: Holm-Šidák's multiple comparisons test; for Nile Red fluorescence intensity, Mean / Nile Red fluorescence intensity, Median: 48 hours, non-obesogenic; for reduced fat levels compared to the Orlistat control / reduced fat levels compared to the standard E. coli OP50 control diet: reduction
Protocol: In this example the weight loss potential of the UF1 probiotic strain was studied. The UF1 probiotic strain was tested in a non-obesogenic setting by measuring the amount of internal fat in UF1-treated worms compared to no treatment controls. Orlistat treatment was also included as a positive control for fat reduction.
Methodology—Worms were raised to the L4 larval stage using standard plate culture methods. The L4 larvae were then loaded into a microfluidic chip and fed a diet of live E. coli OP50 (20 mg/ml) in liquid nematode growth media (NGM). After 24 hours on the chip, the media for each experimental cohort was switched to the experimental diet. The animals were maintained on each experimental diet for 48 hours before being fixed and stained with Nile Red—a fluorescent dye that binds lipids. A fluorescent microscopy system was then used to image the brightness of the lipid staining in the intestine of the worms, which correlates to the levels of fat in each animal.
Nile Red gives off fluorescence when illuminated with green light. The brightness of the intestinal saining in each worm per trial was quantified. This allows the measurement of the natural variability in fat levels across individuals. ANOVA was then used to determine if the distributions across treatment conditions were statistically different to one another.
All datasets were combined by normalizing the data in each trial by dividing it by the mean fluorescence value of the standard diet. In the combined data, the UF1 diets reduced fat levels compared to the standard E. coli OP50 control diet by approximately 47% and 46%, respectively. The subjects also had reduced fat levels compared to the Orlistat control by approximately 38% and 37%, respectively.

[1] = All trials combined, Orlistat 6 μg/ml
[2] = Trial 1, live OP50 20 mg/ml + Orlistat 6 μg/ml
[3] = Trial 2, live OP50 20 mg/ml + Orlistat 6 μg/ml
[4] = Trial 3, live OP50 20 mg/ml + Orlistat 6 μg/ml
[5] = All trials combined, UF1 100 mg/ml diet
[6] = All trials combined, UF1 OD7 diet
[7] = All trials combined, normalized, UF1 100 mg/ml diet
[8] = All trials combined, normalized, UF1 OD7 diet
[9] = All trials combined, Holm-Šídák's multiple comparisons test
[10] = Combined data, UF1 100 mg/ml diet
[11] = Trial 1, UF1 100 mg/ml diet, mean fluorescence
[12] = Trial 1, UF1 OD7 diet, mean fluorescence
[13] = Trial 2, UF1 100 mg/ml diet, mean fluorescence
[14] = Trial 2, UF1 OD7 diet, mean fluorescence
[15] = Trial 3, UF1 100 mg/ml diet, mean fluorescence

## CCCCCCCCCCC[C@@H](C[C@@H]1OC(=O)[C@H]1CCCCCC)OC(=O)[C@H](CC(C)C)NC=O [Orlistat, reference compound]
[1]
  Normalized Nile Red fluorescence, Mean: 0.8579
  Normalized Nile Red fluorescence, Median: 0.8801
All trials combined, normalized, Orlistat 6 μg/ml
  Percentage Change from Standard Diet: −14.21%
All trials combined, Holm-Šídák's multiple comparisons test, Orlistat 6 μg/ml
  Mean Diff. of normalized fluorescence, Standard E. coli Diet vs. Orlistat: 0.1421
Trial 1, Orlistat 6 μg/ml
  Mean Diff. of fluorescence, Standard E. coli Diet vs. Orlistat: 628190
[2]
  Nile Red fluorescence intensity, Mean: 10354899
  Nile Red fluorescence intensity, Median: 10198510
Trial 1, live OP50 20 mg/ml + Orlistat 6 μg/ml, mean fluorescence
  Percentage Change from Standard Diet: −5.72%
Trial 2, Orlistat 6 μg/ml
  Mean Diff. of fluorescence, Standard E. coli Diet vs. Orlistat: 1621884
[3]
  Nile Red fluorescence intensity, Mean: 9011934
  Nile Red fluorescence intensity, Median: 8938493
Trial 2, live OP50 20 mg/ml + Orlistat 6 μg/ml, mean fluorescence
  Percentage Change from Standard Diet: −15.25%
Trial 3, Orlistat 6 μg/ml
  Mean Diff. of fluorescence, Standard E. coli Diet vs. Orlistat: 9789069
[4]
  Nile Red fluorescence intensity, Mean: 28212711
  Nile Red fluorescence intensity, Median: 23127648
Trial 3, live OP50 20 mg/ml + Orlistat 6 μg/ml, mean fluorescence
  Percentage Change from Standard Diet: −25.76%

## Propionibacterium freudenreichii UF1
[5]
  Normalized Nile Red fluorescence, Mean: 0.5321
  Normalized Nile Red fluorescence, Median: 0.5247
[6]
  Normalized Nile Red fluorescence, Mean: 0.5417
  Normalized Nile Red fluorescence, Median: 0.5207
[7]
  Percentage Change from Orlistat: −37.98%
  Percentage Change from Standard Diet: −46.79%
[8]
  Percentage Change from Orlistat: −36.86%
  Percentage Change from Standard Diet: −45.83%
[9]
  Mean Diff. of normalized fluorescence, Orlistat vs. UF1 100 mg/ml: 0.3259
  Mean Diff. of normalized fluorescence, Orlistat vs. UF1 OD7: 0.3162
  Mean Diff. of normalized fluorescence, Standard E. coli Diet vs. UF1 100 mg/ml: 0.4679
  Mean Diff. of normalized fluorescence, Standard E. coli Diet vs. UF1 OD7: 0.4583
[10]
  reduced fat levels compared to the Orlistat control: approximately 38%
  reduced fat levels compared to the standard E. coli OP50 control diet: approximately 47%
Combined data, UF1 OD7 diet
  reduced fat levels compared to the Orlistat control: ~37%
  reduced fat levels compared to the standard E. coli OP50 control diet: ~46%
Trial 1
  Mean Diff. of fluorescence, Orlistat vs. UF1 100 mg/ml: 5160787
  Mean Diff. of fluorescence, Orlistat vs. UF1 OD7: 5293675
  Mean Diff. of fluorescence, Standard E. coli Diet vs. UF1 100 mg/ml: 5788977
  Mean Diff. of fluorescence, Standard E. coli Diet vs. UF1 OD7: 5921865
Trial 1, UF1 100 mg/ml diet
  less fat than the Orlistat control: approximately 50%
  Nile Red fluorescence intensity, Mean: 5194112
  Nile Red fluorescence intensity, Median: 5124444
  reduced fat levels compared to the standard E. coli OP50 control diet: approximately 53%
[11]
  Percentage Change from Orlistat: −49.84%
  Percentage Change from Standard Diet: −52.71%
Trial 1, UF1 OD7 diet
  less fat than the Orlistat control: ~51%
  Nile Red fluorescence intensity, Mean: 5061224
  Nile Red fluorescence intensity, Median: 5147920
  reduced fat levels compared to the standard E. coli OP50 control diet: ~54%
[12]
  Percentage Change from Orlistat: −51.12%
  Percentage Change from Standard Diet: −53.92%
Trial 2
  Mean Diff. of fluorescence, Orlistat vs. UF1 100 mg/ml: 1399524
  Mean Diff. of fluorescence, Orlistat vs. UF1 OD7: 2435073
  Mean Diff. of fluorescence, Standard E. coli Diet vs. UF1 100 mg/ml: 3021408
  Mean Diff. of fluorescence, Standard E. coli Diet vs. UF1 OD7: 4056957
Trial 2, UF1 100 mg/ml diet
  less fat than the Orlistat control: approximately 16%
  Nile Red fluorescence intensity, Mean: 7612410
  Nile Red fluorescence intensity, Median: 7441676
  reduced fat levels compared to the standard E. coli OP50 control diet: approximately 28%
[13]
  Percentage Change from Orlistat: −15.53%
  Percentage Change from Standard Diet: −28.41%
Trial 2, UF1 OD7 diet
  less fat than the Orlistat control: ~27%
  Nile Red fluorescence intensity, Mean: 6576861
  Nile Red fluorescence intensity, Median: 6691779
  reduced fat levels compared to the standard E. coli OP50 control diet: ~38%
[14]
  Percentage Change from Orlistat: −27.02%
  Percentage Change from Standard Diet: −38.15%
Trial 3
  Mean Diff. of fluorescence, Orlistat vs. UF1 100 mg/ml: 9045435
  Mean Diff. of fluorescence, Standard E. coli Diet vs. UF1 100 mg/ml: 18834504
Trial 3, UF1 100 mg/ml diet
  less fat than the Orlistat control: approximately 32%
  Nile Red fluorescence intensity, Mean: 19167276
  Nile Red fluorescence intensity, Median: 20425415
[15]
  Percentage Change from Orlistat: −32.06%
  Percentage Change from Standard Diet: −49.56%
Trial 3, UF1 diets (UF1 100 mg/ml)
  reduced fat levels compared to the standard E. coli OP50 control diet: approximately 50%
UF1 diets, conclusion in words
  reduction in fat level compared with Orlistat: stronger reduction in fat level than the anti-obesity drug Orlistat
non-obesogenic conditions, conclusion in words
  levels of fat in the intestines of C. elegans worms: reduced the levels of fat
